Results as given in ChEMBL document CHEMBL1201862, “PubChem BioAssay data set” (2004).
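Results reflect a 48-hour exposure of cells in 96-well plates to compound at five concentrations. Here, GI50 denotes the concentration required for 50% inhibition of growth.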 The source made the active and inactive calls. Cut-off read from the data, not from the text of the source: active = GI50 up to about 1.1 µM and inactive = higher.

How the values were obtained:
Test in all cases: NCI anticancer screen, dose series, 48 h
NCI-H23 = test system: NCI-H23
DMS-273 = test system: DMS-273
786-0 = test system: 786-0
HL-60 = test system: HL-60
A549 = test system: A549
A498 = test system: A498
HCT-116 = test system: HCT-116
SNB-19 = test system: SNB-19
HOP-62 = test system: HOP-62
KM12 = test system: KM12
IGROV-1 = test system: IGROV-1
CCRF-CEM = test system: CCRF-CEM
SF-295 = test system: SF-295
M14 = test system: M14
SF-268 = test system: SF-268
Malme-3M = test system: Malme-3M
LOX IMVI = test system: LOX IMVI
NCI-H226 = test system: NCI-H226
NCI-H522 = test system: NCI-H522
Hs-578T = test system: Hs-578T

Structure (SMILES) | GI50 (NCI-H23) | GI50 (DMS-273) | GI50 (786-0) | GI50 (HL-60) | GI50 (A549) | GI50 (A498) | GI50 (HCT-116) | GI50 (SNB-19) | GI50 (HOP-62) | GI50 (KM12) | GI50 (IGROV-1) | GI50 (CCRF-CEM) | GI50 (SF-295) | GI50 (M14) | GI50 (SF-268) | GI50 (Malme-3M) | GI50 (LOX IMVI) | GI50 (NCI-H226) | GI50 (NCI-H522) | GI50 (Hs-578T)
COc1ccc(-c2cc(=O)c3cc(C)c(C)c(C(=O)O)c3o2)cc1 | > 100 µM (inactive) | > 100 µM (inactive) | > 100 µM (inactive) | > 100 µM (inactive) | > 100 µM (inactive) | > 100 µM (inactive) | > 100 µM (inactive) | > 100 µM (inactive) | > 100 µM (inactive) | > 100 µM (inactive) | > 100 µM (inactive) | > 100 µM (inactive) | > 100 µM (inactive) |  |  |  |  |  |  | 
COc1ccc(OC)c2cc(C3(C)SCCCS3)ccc12 | 84.3 µM (inactive) | 79.6 µM (inactive) | 73.6 µM (inactive) | 59.3 µM (inactive) | > 100 µM (inactive) | > 100 µM (inactive) | 83.4 µM (inactive) | > 100 µM (inactive) | > 100 µM (inactive) | > 100 µM (inactive) | > 100 µM (inactive) | 71 µM (inactive) | 78.2 µM (inactive) | 65 µM (inactive) | > 100 µM (inactive) | > 100 µM (inactive) | > 100 µM (inactive) |  |  | 
COC(=O)C1CCCC2(C1)OCCO2 (centres undefined) | > 100 µM (inactive) | > 100 µM (inactive) | > 100 µM (inactive) |  | > 100 µM (inactive) | > 100 µM (inactive) | > 100 µM (inactive) | > 100 µM (inactive) | > 100 µM (inactive) | > 100 µM (inactive) | > 100 µM (inactive) | > 100 µM (inactive) | > 100 µM (inactive) | > 100 µM (inactive) | > 100 µM (inactive) | > 100 µM (inactive) | > 100 µM (inactive) | > 100 µM (inactive) | > 100 µM (inactive) | 
Nc1ccc([As](=O)(O)O)cc1 [ARSANILIC ACID] | > 100 µM (inactive) |  | > 100 µM (inactive) | > 100 µM (inactive) | > 100 µM (inactive) | > 100 µM (inactive) | > 100 µM (inactive) | > 100 µM (inactive) | > 100 µM (inactive) | > 100 µM (inactive) | > 100 µM (inactive) | > 100 µM (inactive) | > 100 µM (inactive) | > 100 µM (inactive) | > 100 µM (inactive) | > 100 µM (inactive) | > 100 µM (inactive) | > 100 µM (inactive) | > 100 µM (inactive) | > 100 µM (inactive)
COc1cc(O)c2c(c1)OCC1(Cc3cc(OC)c(OC)cc31)C2=O (centres undefined) | 72.9 µM (inactive) |  | > 100 µM (inactive) | > 100 µM (inactive) | 19.5 µM (inactive) | > 100 µM (inactive) | 86.1 µM (inactive) | > 100 µM (inactive) | > 100 µM (inactive) | > 100 µM (inactive) | > 100 µM (inactive) | > 100 µM (inactive) | 30.5 µM (inactive) | > 100 µM (inactive) | > 100 µM (inactive) | 87.7 µM (inactive) | 89.3 µM (inactive) | 46 µM (inactive) | 84.9 µM (inactive) | 42.5 µM (inactive)
Cc1ccc(S(=O)(=O)N/N=C(/CC(=O)c2c(C)[n+]([O-])c3ccccc3[n+]2[O-])C(=O)Nc2ccc(C)c(C)c2)cc1 | > 100 µM (inactive) | 44.8 µM (inactive) | > 100 µM (inactive) |  | > 100 µM (inactive) | > 100 µM (inactive) | 38.2 µM (inactive) | > 100 µM (inactive) | > 100 µM (inactive) | 28.2 µM (inactive) | 62.8 µM (inactive) |  | > 100 µM (inactive) | > 100 µM (inactive) | > 100 µM (inactive) | > 100 µM (inactive) |  | > 100 µM (inactive) | 70.1 µM (inactive) | 
O=C1NC2c3c(I)sc(I)c3C(=O)C2O1 (centres undefined) | 5.27 µM (inactive) |  | 7.13 µM (inactive) | 1.09 µM (active) | 14.1 µM (inactive) | 14.3 µM (inactive) | 2.58 µM (inactive) | 13.2 µM (inactive) | 14.1 µM (inactive) | 11.6 µM (inactive) | 2.93 µM (inactive) | 1.56 µM (inactive) | 15.8 µM (inactive) | 2.07 µM (inactive) | 6.76 µM (inactive) | 2.23 µM (inactive) | 2.16 µM (inactive) | 5.55 µM (inactive) | 1.56 µM (inactive) | 13.5 µM (inactive)
CC1(C)CO[P@@](=S)(c2ccccn2)O[C@@H]1c1ccccc1 | 89.3 µM (inactive) |  | > 100 µM (inactive) | > 100 µM (inactive) | > 100 µM (inactive) | > 100 µM (inactive) | 93.3 µM (inactive) | > 100 µM (inactive) | > 100 µM (inactive) | > 100 µM (inactive) | > 100 µM (inactive) | 64.4 µM (inactive) | > 100 µM (inactive) | > 100 µM (inactive) | > 100 µM (inactive) | > 100 µM (inactive) | > 100 µM (inactive) | 76.2 µM (inactive) | 70.8 µM (inactive) | > 100 µM (inactive)
CC1=CC2C3(C)C(C)(C(C)=CP3(=O)c3c(C(C)C)cc(C(C)C)cc3C(C)C)C1P2(=O)c1c(C(C)C)cc(C(C)C)cc1C(C)C (centres undefined) | 1.6 µM (inactive) |  | 2.12 µM (inactive) | 1.09 µM (active) | 2.42 µM (inactive) | 2.16 µM (inactive) | 1.75 µM (inactive) | 3.84 µM (inactive) | 2.41 µM (inactive) | 1.78 µM (inactive) | 1.98 µM (inactive) | 2.04 µM (inactive) | 2.4 µM (inactive) | 1.92 µM (inactive) | 3.3 µM (inactive) | 2.17 µM (inactive) | 1.58 µM (inactive) | 2.23 µM (inactive) | 2.4 µM (inactive) | 2.28 µM (inactive)
COc1cccc2cc(C(=O)O)c(=O)oc12 | > 100 µM (inactive) |  | > 100 µM (inactive) | > 100 µM (inactive) | > 100 µM (inactive) | > 100 µM (inactive) | > 100 µM (inactive) | > 100 µM (inactive) | > 100 µM (inactive) | > 100 µM (inactive) | > 100 µM (inactive) | > 100 µM (inactive) | > 100 µM (inactive) | > 100 µM (inactive) | > 100 µM (inactive) | > 100 µM (inactive) | > 100 µM (inactive) | > 100 µM (inactive) | > 100 µM (inactive) | > 100 µM (inactive)
O=C1c2ccccc2C2(O)N(c3ccccc3)C(=S)N(c3ccccc3)C12O (centres undefined) | > 100 µM (inactive) | > 100 µM (inactive) | > 100 µM (inactive) |  | > 100 µM (inactive) | > 100 µM (inactive) | > 100 µM (inactive) | > 100 µM (inactive) | > 100 µM (inactive) | > 100 µM (inactive) | > 100 µM (inactive) | > 100 µM (inactive) | > 100 µM (inactive) | > 100 µM (inactive) | > 100 µM (inactive) | > 100 µM (inactive) | > 100 µM (inactive) | > 100 µM (inactive) | > 100 µM (inactive) | 
Cc1ccccc1/C=C/C(=O)c1ccccc1 | 17.6 µM (inactive) | 25.8 µM (inactive) | 16.3 µM (inactive) |  | 22.5 µM (inactive) | 16.4 µM (inactive) | 15.4 µM (inactive) | 16.5 µM (inactive) | 16.7 µM (inactive) | 23.3 µM (inactive) | 25.2 µM (inactive) | 29.6 µM (inactive) |  | 16.1 µM (inactive) | 15.9 µM (inactive) | 18.1 µM (inactive) |  | 20.5 µM (inactive) | 21.1 µM (inactive) | 
O=c1cc(-c2ccccc2)oc2cc(Oc3nnnn3-c3ccccc3)ccc12 | 51.6 µM (inactive) |  | 38.7 µM (inactive) | 30.5 µM (inactive) | 31.6 µM (inactive) | 28.3 µM (inactive) | 34.6 µM (inactive) | 55.8 µM (inactive) | 93.8 µM (inactive) | 40.4 µM (inactive) | 98.4 µM (inactive) | 69.2 µM (inactive) | 46.2 µM (inactive) | 36.5 µM (inactive) | 15 µM (inactive) | 33.4 µM (inactive) | 38.9 µM (inactive) | 9.42 µM (inactive) | 36.1 µM (inactive) | 25.4 µM (inactive)
CS(=O)(=O)Nc1ccc(NCc2c[nH]c3ccc4ncccc4c23)cc1 | 14.1 µM (inactive) |  | 29.9 µM (inactive) | 22.3 µM (inactive) | 43.4 µM (inactive) | 20.3 µM (inactive) | 20.3 µM (inactive) | 49.1 µM (inactive) | 36.5 µM (inactive) | 17.5 µM (inactive) | 48.6 µM (inactive) | 18.8 µM (inactive) | 24.2 µM (inactive) | 20.9 µM (inactive) | 23.7 µM (inactive) | 23.7 µM (inactive) | 26.4 µM (inactive) | 26.2 µM (inactive) | 18.5 µM (inactive) | 22.3 µM (inactive)
COc1cc(CCCOC(=O)/C=C/c2ccc(O)c(O)c2)cc(O)c1O | 56.4 µM (inactive) |  | 49 µM (inactive) | 25.5 µM (inactive) | 69.2 µM (inactive) | > 100 µM (inactive) | 17.7 µM (inactive) | > 100 µM (inactive) | > 100 µM (inactive) | 44.2 µM (inactive) | 80.2 µM (inactive) | 30.8 µM (inactive) | 35.1 µM (inactive) | > 100 µM (inactive) | 25.2 µM (inactive) | 74 µM (inactive) | 17.6 µM (inactive) | > 100 µM (inactive) | 15 µM (inactive) | 35.6 µM (inactive)
